Measured values taken from patent US6958151B2 (priority 2002, dated 2005).

Assays:
[1] = iv via tail vein, five consecutive days, 16.7 μg/day, 10-day observation
POW virus = system: POW virus; set-up: species or system NIH Swiss mice; details: mouse, in vivo
WN-E-D3 = WN-E-D3 (West Nile virus, UniProt Q9Q6P4); type: binding

Sequence	toxicity to mice [1]	chance for survival (POW virus)	onset of disease / illness (POW virus)	selected by binding (phage display) (WN-E-D3)
RCCHPQCKEGKKCR (SEQ ID NO:157) [MP-100]	neither of the agents is toxic	increases their chance for survival	delay in onset of disease	–
RCCREPCKEGRKCR [MP-106]	–	–	–	selected by binding to WN-E-D3
RCCTLRCKEGKKCR [MP-108]	–	–	–	selected by binding to WN-E-D3
RCCVSVCKEGKKCR [MP-107]	–	–	–	selected by binding to WN-E-D3
